Where two headings read alike, the source gives them in different places. Bounds are passed on as bounds.

Broadly, the EC50 is the concentration at which the effect is half-maximal.

Assay type in all cases: cell-based
Experiment [1] has as its system NCI H460, MCF7, SF268, HONE-1, NUGC-3, HepG2 and A549 cells. Description: Inhibition of cancer cell growth (MTS assay). The following applies: Homo sapiens, tested cancer cells, 72 h, read-out: CC50 (concentration required to reduce the cancer cell growth by 50%). As for the experimental part: NCI H460 (human lung cancer cell line), MCF7 (human breast cancer cell line), SF268 (human brain cancer cell line), HONE-1 (human nasopharyngeal epithelial carcinomas cell line), NUGC-3 (human gastric cancer cell line) cells, HepG2 (human hepatocellular carcinoma cell line), and A549 (human lung adenocarcinoma epithelial cell line) were maintained in DMEM medium containing 10% fetal bovine serum, seeded in 96-well plates (2500, 6500, 7500, 4500, 6000, 10000, or 5000 cells/well), and incubated at 37° C. with 5% CO2 supply for 24 h. The cells were then incubated with or without a test compound (at five different concentrations) in a CO2 incubator at 37° C. for 72 h. The number of viable cells in each well was determined by the tetrazolium dye reduction assay (MTS assay) according to the protocol provided by the manufacturer (Promega, Madison, Wis., USA). For each test compound, a dose-response curve was drawn based on the concentrations of the compound versus the numbers of viable cells treated with the compound at those concentrations. The CC50 value of that compound, referring to the concentration of the compound required to reduce the cancer cell growth by 50%, was determined according to the dose-response curve.
For orientation: Tetrazolium dyes change colour on reduction, which living cells bring about.

The test system of experiment [2] is Transmissible Gastroenteritis Virus (TGEV) spike (S) and nucleocapsid (N) proteins. Kind of experiment: Inhibition of TGEV protein production (indirect immunofluorescent assay in ST cells). As for the experimental part: Swine testicular (ST) cells were cultured in a 96-well plate in the presence or absence of a test compound (at 8 different concentrations) for 2 hours and then infected with TGEV at a MOI of 10. Six hours after TGEV infection, the ST cells were fixed with 80% acetone and subjected to an indirect immunofluorescent assay (IFA) to examine the levels of TGEV spike (S) and nucleocapsid (N) proteins. Briefly, the fixed cells were incubated with murine monoclonal antibodies specific to these two viral proteins for a sufficient period to allow binding of the antibodies to the viral proteins. After being washed with phosphate-buffered saline for three times, the cells were incubated with a fluorescein isothiocyanate-conjugated anti-mouse immunoglobulin antibody (ICN Pharmaceuticals, Inc./Cappel) for 60 min at room temperature. The cells were washed again with phosphate-buffered saline for three times, and the fluorescence intensities released from these cells were measured by a Wallac Victor II system (Packard, Inc.) at excitation and emission wavelengths 485 nm and 535 nm, respectively. The 50% effective concentration (EC50) for inhibiting S and N protein expression of the test compound was determined based on the florescence intensity values thus measured. Alternatively, the fluorescence intensities were detected by fluorescence microscopy. More specifically, the fluorescent images produced under 485 nm and 535 nm were captured by a charge-coupled device linked to a Leica IM50 Image Manager.

The subject of experiment [3] is NO production in RAW 264.7 cells. Kind of experiment: Inhibition of nitric oxide production (Nitrate/Nitrite assay, Griess reagent). To be noted: Mus musculus, RAW264.7, LPS (10 μg/ml)/IFNγ (20 ng/ml), 18-24 h, read-out: EC50 value for inhibiting nitric oxide production. Here is the method: RAW 264.7 cells were seeded (70,000 cells/well) and cultured in a 96-well culture plate using the DMEM medium described above. 24 hours later, the medium was replaced with a fresh DMEM medium supplemented with LPS (10 μg/ml)/IFNγ (20 ng/ml). Test compounds (at different concentrations) were then added. The cells, incubated with or without test compounds, were then cultured for 18-24 h and the nitrate and nitric oxide levels in the culturing medium were measured using a Nitrate/Nitrite assay kit (Cayman Chemical). Nitrate was reduced to nitrite with nitrate reductase and determined spectrophotometrically with Griess reagent at OD540. For each test compound, a dose-response curve was drawn based on the concentrations of the compound versus the corresponding nitrate/nitric oxide levels in the culturing media of the cells treated with the compound. The EC50 value of that compound for inhibiting nitric oxide production was determined according to the dose-response curve.
Background: Nitrite, measured by Griess reagent, commonly stands in for NO production.

Setting [4] is: Alphacoronavirus 1, ST cells, compound 2 hours before TGEV infection at MOI of 10, read six hours after infection, read-out: EC50 for inhibiting S and N protein expression.
Where [5] appears, read: Alphacoronavirus 1, read-out: EC50 for inhibiting S and N protein expression.

Turning to `CCN1CCc2c(c3cc(OC)ccc3c3cc(OC)c(OC)cc23)C1` [Compound 30], the CC50 in experiment [1] was < 50 µM.

With `CCN1CCc2c(c3cc(OC)c(OC)cc3c3cc(OC)ccc23)C1` [Compound 5], the concentration for a half-maximal effect (EC50) in experiment [2] (setting [4]) is < 1 µM. The CC50 in experiment [1] was < 50 µM.

Consider `CCC(C)N1CCc2c(c3cc(OC)c(OC)cc3c3cc(OC)c(OC)cc23)C1` (centres unmarked) [Compound 26], for which the EC50 in experiment [2] (setting [5]) is < 1 µM. Further, in experiment [1], the CC50 is < 50 µM.

Regarding `COc1cc2c3c(c4cc(OC)c(OC)cc4c2cc1OC)CN(CCNC(=O)OC(C)(C)C)CC3` [Compound 35], the CC50 in experiment [1] was < 50 µM.

For `CCCCN1CCc2c(c3cc(OC)c(OC)cc3c3cc(OC)c(OC)cc23)C1` [Compound 20], the CC50 in experiment [1] was < 50 µM.

Regarding `CCN1Cc2c(c3cc(OC)c(OC)cc3c3cc(OC)c(OC)cc23)C(O)C1` (centres unmarked) [Compound 9], the EC50 in experiment [3] and in experiment [2] (setting [4]) was < 1 µM in each case. In experiment [1], the CC50 was < 50 µM.

`CCN1CCc2c(c3cc(OC)c(OC)cc3c3c(OC)c(OC)c(OC)cc23)C1` [Compound 1]: the EC50 in experiment [3] and in experiment [2] (setting [5]) was < 1 µM throughout. Also, the CC50 in experiment [1] was < 50 µM.

For `COc1cc2c3c(c4cc(OC)c(OC)cc4c2cc1OC)CN(C(C)C)CC3` [Compound 25], the EC50 in experiment [3] and in experiment [2] (setting [5]) was < 1 µM each time. Moreover, the CC50 in experiment [1] is < 50 µM.

With `CCCN1CCc2c(c3cc(OC)c(OC)cc3c3c(OC)c(OC)c(OC)cc23)C1` [Compound 2], in experiment [2] (setting [5]), the EC50 was < 1 µM. In addition, in experiment [1], the CC50 was < 50 µM.

With `CCCN1CCc2c(c3cc(OC)c(OC)cc3c3cc(OC)c(OC)cc23)C1` [Compound 19], the EC50 in experiment [2] (setting [5]) is < 1 µM. Moreover, the CC50 in experiment [1] is < 50 µM.

For the molecule `CCCCN1CCc2c(c3cc(OC)c(OC)cc3c3c(OC)c(OC)c(OC)cc23)C1` [Compound 3], in experiment [1], the CC50 was < 50 µM.

With `COc1cc2c3c(c4cc(OC)c(OC)cc4c2cc1OC)CN(C1C=CCCC1)CC3` (centres unmarked) [Compound 34], the CC50 in experiment [1] is < 50 µM.

`CCCCN1CCc2c(c3cc(OC)c(OC)cc3c3cc(OC)ccc23)C1` [Compound 7]: in experiment [1], the CC50 is < 50 µM.

Turning to `CCCN1CCc2c(c3cc(OC)ccc3c3cc(OC)c(OC)cc23)C1` [Compound 31], the CC50 in experiment [1] was < 50 µM.

For `COc1cc2c3c(c4cc(OC)c(OC)cc4c2cc1OC)CN(CCC1OCCO1)CC3` [Compound 24], in experiment [1], the CC50 was < 50 µM.

As for `CCN1CCc2c(c3cc(OC)c(OC)cc3c3cc(OC)c(OC)cc23)C1` [Compound 18], the CC50 in experiment [1] is < 50 µM.

`CCCN1CCc2c(c3cc(OC)ccc3c3c(OC)c(OC)ccc23)C1` [Compound 32]: in experiment [1], the CC50 is < 50 µM.

On to `COc1cc2c3c(c4cc(OC)c(OC)cc4c2cc1OC)CN(CC1OCCO1)CC3` [Compound 23], for which the CC50 in experiment [1] is < 50 µM.

For the molecule `COc1cc2c3c(c4cc(OC)c(OC)cc4c2cc1OC)C(O)CN(C(C)C)C3` (centres unmarked) [Compound 14], the EC50 in experiment [3] is < 1 µM. Moreover, the CC50 in experiment [1] is < 50 µM.

Regarding `CCCN1Cc2c(c3cc(OC)c(OC)c(OC)c3c3cc(OC)c(OC)cc23)C(O)C1` (centres unmarked) [Compound 8], the EC50 in experiment [2] (setting [4]) is < 1 µM. Further, the CC50 in experiment [1] was < 50 µM.

As for `COc1cc2c3c(c4cc(OC)c(OC)cc4c2cc1OC)CN(CC(C)C)CC3` [Compound 21], in experiment [1], the CC50 is < 50 µM.

Consider `CCCN1CCc2c(c3cc(OC)c(OC)cc3c3cc(OC)ccc23)C1` [Compound 6], for which the EC50 in experiment [2] (setting [4]) was < 1 µM. Also, the CC50 in experiment [1] is < 50 µM.

For `CCCN1Cc2c(c3cc(OC)c(OC)cc3c3cc(OC)c(OC)cc23)C(O)C1` (centres unmarked) [Compound 10], the concentration for a half-maximal effect (EC50) in experiment [3] and in experiment [2] (setting [4]) was < 1 µM each time. Further, the CC50 in experiment [1] was < 50 µM.

With `COc1cc2c3c(c4cc(OC)c(OC)c(OC)c4c2cc1OC)CCN(C(C)C)C3` [Compound 4], the EC50 in experiment [2] (setting [4]) was < 1 µM. Moreover, the CC50 in experiment [1] was < 50 µM.

As to `CCN1Cc2c(c3ccc(OC)cc3c3cc(OC)c(OC)cc23)C(O)C1` (centres unmarked) [Compound 33], the EC50 in experiment [3] was < 1 µM. In experiment [1], the CC50 was < 50 µM.

As to `COc1cc2c3c(c4cc(OC)c(OC)cc4c2cc1OC)CN(CCN)CC3` [Compound 36], the CC50 in experiment [1] is < 50 µM.

Turning to `CCCN1CCc2c(c3ccc(OC)cc3c3cc(OC)c(OC)cc23)C1` [Compound 29], the CC50 in experiment [1] was < 50 µM.

The record behind these values is patent US8486959B2, “Dibenzo[f,h]isoquinoline derivatives” (National Health Research Institutes, priority 2010, dated 2013).
